Data as given in US20170119907A1, “Targeted Therapeutics” (MEDIVATION TECHNOLOGIES, INC., priority 2014, published 2017).

Key:
hMSCs = test: Differentiation of human MSCs to chondrocytes in pellet culture (aggrecan stain); assay type: cell-based; details: for ECM area (Aggrecan stain): 10 μM, 21 days, Differentiation Medium +, aggrecan ratio relative to cell number; for Differentiation of hMSCs to chondrocytes (in words): compound and differentiation medium, with or without priming, relative to control without differentiation medium
Description: hMSCs (Lonza, Cat No PT-2501) were cultured in complete mesenchymal stem cell culture medium (Lonza, Cat No PT-3238). For differentiation experiments, complete mesenchymal stem cell culture medium was removed, and hMSCs were either incubated for 30 min in chondrocyte differentiation medium containing TGFβ (R&D Systems, Cat No CCM005 and CCM006) (primed condition) or maintained in complete mesenchymal stem cell culture medium for 30 min.
hMSCs were collected, washed in PBS, and incubated in 500 μL of 10 μM Compound 4 or 20 in PBS for 20 min. Cells were washed in PBS and counted. 5×10^5 cells were placed in a 15 mL tube. The cells were centrifuged at 500 g for 7 min, and either 500 μL of maintenance medium (Lonza, Cat No PT-3238) or chondrocyte differentiation medium was added gently. The medium was changed every 2 to 3 days for three weeks, maintaining the 500 μL volume.
After three weeks, the medium was removed, and cell pellets were fixed in 500 μL of a 4% paraformaldehyde (PFA) in PBS solution for 20 min at room temperature. The solution was removed, and 500 μL of a 4% PFA, 15% sucrose in PBS was added, and the mixture was left overnight. The solution was removed, and 500 μL of a 4% PFA, 30% sucrose in PBS was added, then the mixture was left overnight or until the pellet was in the bottom of the tube. The pellet culture was frozen in TISSUE-TEK® O.C.T. compound (Cat No 4583), and 5 μm cuts were made. The slices were fixed on a positive charged slide (Cell Path, Cat No MDB-0102-54A). A hydrophobic pen was used to draw a line around the cuts on the slide.
100-300 μL of blocking solution (1% BSA, 0.3% TRITON® X-100 in PBS) was added on top of the slices which were left for 1 h at RT. The blocking solution was extracted with a micropipette. Primary antibody (goat anti-aggrecan G1-IgD-G2 domain, R&D systems, Cat No AF1220) was diluted 1:20 in blocking solution, and 100-200 μL of this solution was added on top of the slices. The slides were left at 4° C. overnight in a humidified box. The primary antibody solutions were removed, and the slices were washed 3 times with 1% BSA in PBS for 5 min. The lines were redrawn around the slices with the hydrophobic pen. From the incubation with the secondary antibody and on, the samples were kept in the dark to avoid degrading the fluorophore.
The secondary antibodies were diluted 1:100 in blocking solution. 100-200 μL of the secondary antibody solution (donkey anti-goat IgG Alexa fluor 488, Invitrogen, Cat No A11055) was added to the slices. The slices were incubated for 1 h at RT. The slices were washed 3 times with 1% BSA in PBS for 5 min. The lines were redrawn around the slices with the hydrophobic pen.
Slices were stained with 100-200 μL of a 1:2000 dilution of DAPI in PBS for 5 min at RT. The DAPI was removed, and the slices were washed 3 times with PBS for 5 min, then washed a 4th time with distilled water for another 5 min. The slides were left to dry. 30 μL of Fluorescent Mounting Medium was added, and then the slices were covered with a coverslip.

Raji cells [1] = test: Viability of Raji cells treated with compound (Example B2); assay type: cell-based; details: concentrations of 20 μM or below, FIG. 3C
Raji cells [2] = test: Binding to and staining of Raji cells (Example B1b); assay type: cell-based; details: photomicrographs; for binding to Raji cells: FIG. 2B, Example B1b; for binding to and staining of Raji cells: FIG. 4B
[3] = test system: articular cartilage degeneration (MIA model); test: Monosodium iodoacetate (MIA) model of articular cartilage degeneration, compound-incubated hMSCs; assay type: in vivo, Sprague Dawley rats; details: rat MIA 3 mg intra-articular; 4×10^5 hMSCs incubated in 10 μM compound injected day 7; evaluated day 28; FIG. 7
Description: 6 to 8 week old Sprague Dawley rats were anesthetized with 3% sevofluorane and injected in both the right and left knee intra-articularly with MIA (monosodium iodoacetate, Sigma Cat No I2512) at a dose of 3 mg in a volume of 50 pt. MIA was dissolved in sterile saline (0.9%). hMSCs (Lonza, Cat No PT-2501) were cultured in complete MSCCM™ mesenchymal stem cell culture medium (Lonza, Cat No PT-3238).
Seven days after the injection of MIA, 2-10 million hMSCs were collected and incubated for 20 min in 500 μL of 10 μM Compound 20 in PBS or in PBS alone (untreated). Cells were washed with PBS and counted.
Rats were again anesthetized with 3% sevofluorane. 4×10^5 hMSCs incubated in PBS or in Compound 20 were injected intraarticularly through the patellar ligament. Untreated hMSC were injected into the left knee joint, and Compound 20-stained hMSCs were injected into the right knee joint.
Twenty eight days after the injection of MIA, rats were euthanized, and femoral condyles were extracted for macroscopic evaluation.

ARH-77 cells [4] = test: Binding to ARH-77 cells (fluorescence staining); assay type: cell-based; details: 10 μM, 30 min; 530 nm/600 nm filter set; FIG. 2A
Description: ARH-77 cells (an EBV-transformed B lymphoblastoid cell line established from cells of a patient with plasma cell leukemia) were incubated as indicated with PBS or 10 μM Compound 4 for 30 min. Cells were washed twice with 1 mL PBS, and staining was detected using a 530 nm/600 nm filter set on a Molecular Imaging Gel Logic system.

ARH-77 cells [5] = test: Binding of compounds to ARH-77 cells (Example B1a); assay type: cell-based; details: photomicrographs, FIG. 2A
human MSCs [6] = test: Binding to human MSCs (visual inspection of staining); assay type: cell-based; details: 5 μM or 10 μM, 30 min; FIG. 4A
Description: Human MSCs were incubated without Compound 4 or with Compound 4 (5 μM or 10 μM) for 30 min and then washed twice with 1 mL PBS. Samples were visually inspected to determine staining

human MSCs [7] = test: Binding to and staining of human MSCs; assay type: cell-based; details: photomicrographs, FIG. 4A

Cc1cc2nc3cc(C)c(NCCCCCCNC(=O)c4ccc(-c5ccc(C(=O)NCCCCCCNc6cc7c(cc6C)nc6cc(C)c(N)cc6[n+]7-c6ccccc6)cc5)cc4)cc3[n+](-c3ccccc3)c2cc1N.[Cl-].[Cl-] [Compound 20, (3-amino-7-{[6-({4-[4-({6-[(7-amino-5-chloranuide-2,8-dimethyl-5-phenyl-5λ^6,10-phenazin-5-ylium-3-yl)amino]hexyl}carbamoyl)phenyl]phenyl}formamido)hexyl]amino}-2,8-dimethyl-5-phenyl-5λ^6,10-phenazin-5-ylium-5-e)chloranuide]
ECM area (Aggrecan stain) (hMSCs; Priming +): 0.97 | ECM area (Aggrecan stain) (hMSCs; Priming −): 0.74 | Differentiation of hMSCs to chondrocytes (in words) (hMSCs): induced high levels of differentiation | viability of Raji cells relative to untreated control Raji cells (Raji cells [1]): do not affect | binding to Raji cells (Raji cells [2]): binding | binding to and staining of Raji cells (Raji cells [2]): bind to and stain | Macroscopic evaluation of femoral condyle cartilage [3]: an improvement in the cartilage and surrounding bone area

Cc1cc2nc3cc(C)c(NCCCCCCCCNc4cc5c(cc4C)nc4cc(C)c(N)cc4[n+]5-c4ccccc4)cc3[n+](-c3ccccc3)c2cc1N.[Cl-].[Cl-] [Compound 4, 7,7′-(octane-1,8-diylbis(azanediyl))bis(3-amino-2,8-dimethyl-5-phenylphenazin-5-ium) chloride]
ECM area (Aggrecan stain) (hMSCs; Priming +): 1.41 | ECM area (Aggrecan stain) (hMSCs; Priming −): 0.74 | Differentiation of hMSCs to chondrocytes (in words) (hMSCs): induced high levels of differentiation | binding to ARH-77 cells (ARH-77 cells [4]): binds to ARH-77 cells | binding to ARH-77 cells (ARH-77 cells [5]): binding | Binding to human MSCs (visual staining) (human MSCs [6]): binds human MSCs | binding to Raji cells (Raji cells [2]): binding | binding to and staining of Raji cells (Raji cells [2]): bind to and stain | binding to and staining of human MSCs (human MSCs [7]): binds to and stains
